Measured values: US7053041B1, “Methods and compositions useful for inhibition of αvβ5mediated angiogenesis” (The Scripps Research Institute, priority 1996, dated 2006)
[ ]: non-standard residue; d: D form.

B1: LM609: mouse monoclonal antibody, anti-αvβ3 (antibody, V domains shown)
VH: EVQLEESGGGLVKPGGSLKLSCAASGFAFSSYDMSWVRQIPEKRLEWVAKVSSGGGSTYYLDTVQGRFTISRDNAKNTLYLQMSSLNSEDTAMYYCARHNYGSFAYWGQGTLVTVSA
VL: ELVMTQTPATLSVTPGDSVSLSCRASQSISNHLHWYQQKSHESPRLLIKYASQSISGIPSRFSGSGSGTDFTLSINSVETEDFGMYFCQQSNSWPHTFGGGTKLEIKRA

Key:
M21-L tumors = assay: tumor regression on chick CAM, M21-L tumors, intravenous peptide; format: in vivo; details: 100 ug peptide intravenously 18 hours postimplantation; 48 hours more
Description: (§1) In one particular set of assays, additional tumor regression assays were performed with the αvβ5-reactive peptide 85189 (SEQ ID NO 9) against 69601 (SEQ ID NO 5) as a control. The assays were performed as described above with the exception that 100 ug of peptide was intravenously injected into the CAM at 18 hourst postimplantation of the various tumors which in this case included UCLAP-3, M21-L and FgM tumor types. After 48 hours more, the tumors were then resected and wet weights were obtained.

integrin αIIbβ3 = integrin αIIbβ3 (Homo sapiens, UniProt P05106+P08514); details: cited from earlier work
[1] = system: bFGF-induced angiogenesis; assay: chick CAM assay, bFGF-induced angiogenesis, intravenous inhibitors; format: in vivo; details: for inhibition of bFGF-induced CAM angiogenesis: bFGF 150 ng/ml, 75 μg antibody or peptide intravenously, 72 hours
Description: Ten day old chick embryos were obtained from McIntyre Poultry (Lakeside, Calif.) and incubated at 37C with 60% humidity. A small hole was made through the shell at the end of the egg directly over the air sac with the use of a small crafts drill (Dremel, Division of Emerson Electric Co., Racine, Wis.). A second hole was drilled on the broad side of the egg in a region devoid of embryonic blood vessels determined previously by candling the egg. […] A 1.0 centimeter (cm)×1.0 cm square window was cut through the shell over the dropped CAM with the use of a small model grinding wheel (Dremel). The small window allowed direct access to the underlying CAM.
Angiogenesis was induced by placing a 5 millimeter (mm)×5 mm Whatman filter disk (Whatman Filter paper No. 1) saturated with Hanks Balanced Salt Solution (HBSS, GIBCO, Grand Island, N.Y.) or HBSS containing preselected cytokines at a preselected concentration, i.e. one to test the effect on angiogenesis, on the CAM of a 10 day chick embryo in a region devoid of blood vessels and the windows were later sealed with tape. Angiogenesis was monitored by photomicroscopy after 72 hours. CAMs were snap frozen then 6 μm cryostat sections were fixed with acetone and stained by immunofluorescence as described in Example 2B and 2C with 10 μg/ml of selected anti-integrin antibodies, including those directed against αvβ5 as described in Example 1.
Angiogenesis was first induced on 10 day old chick embryos by application of growth factor-saturated filter disks. Specifically, in the first assays, angiogenesis was induced by exposure to either bFGF or VEGF, each at a concentration of 150 ng/ml.
For application of growth factors, during the candling procedures, prominent blood vessels were selected and marks were made on the egg shell to indicate their positions. The holes were drilled in the shell, the CAMs were dropped and growth factor-saturated filter papers were then separately placed on the CAMs as described above. The windows were sealed with sterile tape and the embryos were replaced in the incubator.
Twenty four hours later, a second small window was carefully cut on the lateral side of the egg shell directly over prominent blood vessels selected previously. The outer egg shell was carefully removed leaving the embryonic membranes intact. The shell membrane was made transparent with a small drop of mineral oil (Perkin-Elmer Corp, Norwalk, Conn.) which allowed the blood vessels to be visualized easily. Then, phosphate buffered saline (PBS), 75 μg of purified sterile anti-integrin antibodies or 75 μg of synthetic peptides (cyclic peptide RGDfV, SEQ ID NO 4 and control cyclic peptide RADfV, SEQ ID NO 5) in PBS were injected into blood vessels apparent on the growth factor-induced CAMs. The windows were sealed with tape and the embryos were allowed to incubate until 72 hours.
The filter discs and representative surrounding CAM tissues were photographed in a stereomicroscope (FIGS. 3A–3F and FIGS. 5A–5F) and the mean angiogenic index +/− the standard error was determined for 12 CAMs per condition (FIGS. 4A–4B and FIGS. 6A–6B). Angiogenesis was scored for each embryo in a double blind manner by analyzing the number and extent of branching of blood vessels within the area of each disc. The scores ranged from 1 (low) to 4 (high) and the angiogenesis index was determined by subtracting a background of 1 from all data. […]

UCLAP-3 tumors = assay: tumor regression on chick CAM, UCLAP-3 tumors, intravenous peptide; format: in vivo; details: 100 ug peptide intravenously 18 hours postimplantation; 48 hours more
Description: as §1

retinal vasculogenesis = assay: newborn mouse model of retinal angiogenesis; format: in vivo
Description: For the model, newborn mice were injected subcutaneously twice daily for four days starting from day 0 with the cyclic peptide RGDfV (SEQ ID NO 4) (also referred to as peptide 203) or the control peptide RADfV (SEQ ID NO 5). On postnatal day five, globes were removed and fixed in 4.0% paraformaldehyde (PFA) at room temperature.
To quantitate mouse retinal angiogenesis, the distance from the optic nerve head to the most distal point of a single vessel selected in each of six equal sectors around a twelve hour clock was measured. The mean distance was calculated and averaged with similar data obtained from an entire litter. To measure the total volume of retinal blood vessels, the entire specimen was scanned in 2.0 μm optical sections and stored digitally. The “seed” function in Bio-Rad's Lasersharp software was then used to threshold and count cubic pixels in each section. A macro was written to sum the volume of all sections and determine the value for all vascular structures.

integrin α5β1 = integrin α5β1 (Homo sapiens, UniProt P05556+P08648); details: cited from earlier work
integrin α5β1, sequence (P08648 42-894 limits assumed): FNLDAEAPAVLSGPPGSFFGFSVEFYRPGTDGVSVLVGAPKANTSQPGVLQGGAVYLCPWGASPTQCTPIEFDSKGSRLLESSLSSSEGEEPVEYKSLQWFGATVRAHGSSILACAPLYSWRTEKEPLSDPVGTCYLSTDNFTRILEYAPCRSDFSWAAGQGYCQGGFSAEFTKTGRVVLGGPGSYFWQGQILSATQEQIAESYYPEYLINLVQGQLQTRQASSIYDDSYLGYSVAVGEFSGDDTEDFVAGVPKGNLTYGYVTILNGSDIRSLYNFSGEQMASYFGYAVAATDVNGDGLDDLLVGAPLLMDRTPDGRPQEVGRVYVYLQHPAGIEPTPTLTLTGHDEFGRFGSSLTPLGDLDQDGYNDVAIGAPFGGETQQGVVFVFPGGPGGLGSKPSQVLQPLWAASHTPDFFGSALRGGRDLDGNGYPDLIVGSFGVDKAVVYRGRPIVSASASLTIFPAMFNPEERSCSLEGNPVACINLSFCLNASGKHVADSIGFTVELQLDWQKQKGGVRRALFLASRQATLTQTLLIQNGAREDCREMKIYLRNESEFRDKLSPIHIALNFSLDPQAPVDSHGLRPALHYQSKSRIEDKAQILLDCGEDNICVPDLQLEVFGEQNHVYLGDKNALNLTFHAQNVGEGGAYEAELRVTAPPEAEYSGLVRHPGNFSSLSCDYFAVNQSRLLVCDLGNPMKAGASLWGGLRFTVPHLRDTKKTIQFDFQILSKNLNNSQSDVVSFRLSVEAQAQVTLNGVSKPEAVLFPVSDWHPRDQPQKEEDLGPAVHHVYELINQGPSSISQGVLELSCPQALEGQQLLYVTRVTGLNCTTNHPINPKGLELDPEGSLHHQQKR
integrin α5β1, sequence (P08648 895-1049 partner limits assumed): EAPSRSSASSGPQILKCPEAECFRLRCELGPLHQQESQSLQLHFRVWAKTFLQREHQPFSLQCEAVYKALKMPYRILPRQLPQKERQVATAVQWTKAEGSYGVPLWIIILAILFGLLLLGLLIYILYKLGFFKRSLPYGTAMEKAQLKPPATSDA
integrin α5β1, sequence (P05556 21-798): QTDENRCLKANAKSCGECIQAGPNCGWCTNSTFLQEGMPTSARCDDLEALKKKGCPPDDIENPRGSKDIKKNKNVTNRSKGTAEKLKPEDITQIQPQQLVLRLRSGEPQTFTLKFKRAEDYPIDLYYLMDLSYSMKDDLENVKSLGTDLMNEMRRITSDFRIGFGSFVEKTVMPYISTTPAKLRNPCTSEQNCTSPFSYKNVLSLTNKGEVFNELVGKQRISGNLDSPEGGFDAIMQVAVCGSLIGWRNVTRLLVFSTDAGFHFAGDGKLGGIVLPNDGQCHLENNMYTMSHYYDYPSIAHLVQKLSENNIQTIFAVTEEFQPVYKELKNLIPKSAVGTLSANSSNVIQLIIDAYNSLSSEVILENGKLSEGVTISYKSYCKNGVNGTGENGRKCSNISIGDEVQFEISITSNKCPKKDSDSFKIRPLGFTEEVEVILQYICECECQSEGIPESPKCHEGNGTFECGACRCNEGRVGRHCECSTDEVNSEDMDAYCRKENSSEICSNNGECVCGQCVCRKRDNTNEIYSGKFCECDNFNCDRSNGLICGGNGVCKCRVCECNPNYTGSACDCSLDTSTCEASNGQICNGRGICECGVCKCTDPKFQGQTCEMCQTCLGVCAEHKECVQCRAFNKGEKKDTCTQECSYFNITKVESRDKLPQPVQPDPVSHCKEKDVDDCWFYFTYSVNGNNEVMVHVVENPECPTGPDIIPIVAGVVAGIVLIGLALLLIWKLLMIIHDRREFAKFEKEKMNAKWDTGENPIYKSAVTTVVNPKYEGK

integrin αvβ3 = integrin αvβ3 (Homo sapiens, UniProt P05106+P06756); details: cited from earlier work
integrin αvβ3, sequence (P06756 31-889 limits assumed): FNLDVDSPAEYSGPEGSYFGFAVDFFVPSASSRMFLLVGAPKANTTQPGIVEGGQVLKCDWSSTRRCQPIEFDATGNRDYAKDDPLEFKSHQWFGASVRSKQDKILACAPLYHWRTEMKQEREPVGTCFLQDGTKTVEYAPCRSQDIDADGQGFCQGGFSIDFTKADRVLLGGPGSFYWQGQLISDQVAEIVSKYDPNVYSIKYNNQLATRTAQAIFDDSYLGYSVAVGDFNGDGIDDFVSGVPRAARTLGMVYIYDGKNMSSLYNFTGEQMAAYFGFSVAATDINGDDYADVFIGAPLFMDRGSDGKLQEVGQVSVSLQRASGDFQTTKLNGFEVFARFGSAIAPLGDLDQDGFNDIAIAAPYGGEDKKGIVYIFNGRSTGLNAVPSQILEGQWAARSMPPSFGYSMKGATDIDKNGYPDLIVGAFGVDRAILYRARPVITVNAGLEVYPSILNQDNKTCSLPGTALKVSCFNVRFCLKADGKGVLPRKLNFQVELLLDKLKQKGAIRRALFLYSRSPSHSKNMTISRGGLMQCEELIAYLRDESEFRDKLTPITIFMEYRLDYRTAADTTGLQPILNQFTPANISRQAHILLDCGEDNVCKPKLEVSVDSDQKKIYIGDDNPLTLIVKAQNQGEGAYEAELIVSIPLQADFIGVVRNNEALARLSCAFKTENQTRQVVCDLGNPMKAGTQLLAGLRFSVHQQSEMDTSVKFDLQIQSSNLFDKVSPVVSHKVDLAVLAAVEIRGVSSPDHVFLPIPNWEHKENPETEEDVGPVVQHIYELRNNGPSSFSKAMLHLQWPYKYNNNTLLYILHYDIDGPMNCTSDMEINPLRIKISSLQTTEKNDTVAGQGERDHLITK
integrin αvβ3, sequence (P06756 891-1048 partner limits assumed): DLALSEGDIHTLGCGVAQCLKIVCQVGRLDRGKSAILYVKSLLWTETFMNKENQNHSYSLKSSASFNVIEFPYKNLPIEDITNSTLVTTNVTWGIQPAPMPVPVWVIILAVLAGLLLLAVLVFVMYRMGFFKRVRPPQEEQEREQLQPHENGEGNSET
integrin αvβ3, sequence (P05106 27-788): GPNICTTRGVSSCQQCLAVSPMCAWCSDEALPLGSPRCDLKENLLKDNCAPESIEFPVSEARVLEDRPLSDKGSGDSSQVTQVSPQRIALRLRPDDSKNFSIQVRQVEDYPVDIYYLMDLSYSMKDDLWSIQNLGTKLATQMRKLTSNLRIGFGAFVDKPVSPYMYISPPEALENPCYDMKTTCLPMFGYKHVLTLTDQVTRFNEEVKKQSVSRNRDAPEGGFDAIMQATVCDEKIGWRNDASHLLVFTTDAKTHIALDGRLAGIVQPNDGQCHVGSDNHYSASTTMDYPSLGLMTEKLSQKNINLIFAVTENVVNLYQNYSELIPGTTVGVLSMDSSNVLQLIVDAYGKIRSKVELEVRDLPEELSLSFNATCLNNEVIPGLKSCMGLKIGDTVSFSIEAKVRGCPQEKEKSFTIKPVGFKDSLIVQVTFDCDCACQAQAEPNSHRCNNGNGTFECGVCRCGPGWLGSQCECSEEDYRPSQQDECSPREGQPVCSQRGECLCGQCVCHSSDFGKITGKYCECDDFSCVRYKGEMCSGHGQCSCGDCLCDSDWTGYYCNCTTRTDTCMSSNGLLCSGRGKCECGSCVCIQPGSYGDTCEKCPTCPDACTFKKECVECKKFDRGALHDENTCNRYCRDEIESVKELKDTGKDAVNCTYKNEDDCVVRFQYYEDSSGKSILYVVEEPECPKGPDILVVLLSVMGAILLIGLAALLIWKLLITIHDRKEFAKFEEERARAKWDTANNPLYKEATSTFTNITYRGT

[2] = system: angiogenesis induced by TGF-α; assay: chick CAM assay, TGF-α-induced angiogenesis; format: in vivo; details: TGF-α 1.0 μg/ml; antibodies 75 μg per embryo, calphostin C 100 nM
Description: (§2) The above growth factors (cytokines), including bFGF and VEGF, were separately applied at a concentration of 1.0 μg/ml to the 10 day old CAM model as previously described. PMA was used at a concentration of 20 ng/ml.
(§3) After 24 hours after growth factor treatment, the antibodies, LM609 and P1F6, or the protein kinase C (PKC) inhibitor, calphostin C, were separately provided to the CAM model, either by a single intravascular dose as described above or by topical administration as described below in the next example. For intravascular injections over the next 3 day consecutive period, the antibodies were used at a concentration of 75 μg per embryo and the calphostin C was at a dosage of 100 nM.
(§4) On day 13, filter discs and associated CAM tissue were dissected and analyzed for angiogenesis with a stereo microscope. Angiogenesis was scored in a double blind manner by analyzing the number and extent of branching of the blood vessels within the area of the discs. The scores ranged from low (1) to high (4). The angiogenesis index was determined by subtracting a background score of 1 from all data. Experiments were repeated 2–4 times with 5–6 embryos per condition.

[3] = system: angiogenesis induced by PMA; assay: chick CAM assay, PMA-induced angiogenesis; format: in vivo; details: PMA 20 ng/ml; antibodies 75 μg per embryo, calphostin C 100 nM
Description: as §2, §3, §4

Molecule | effect on tumor wet weight, M21-L (M21-L tumors) | inhibition of binding of fibrinogen to integrin αIIbβ3 (integrin αIIbβ3) | inhibition of bFGF-induced CAM angiogenesis [1] | effect on tumor wet weight, UCLAP-3 (UCLAP-3 tumors) | mean volume of retinal vessels (retinal vasculogenesis; postnatal day five) | difference in vessel growth between untreated five-day old mice and same aged treated mice (retinal vasculogenesis; two dimensions) | inhibition of binding of fibrinogen to integrin α5β1 (integrin α5β1) | inhibition of binding of fibrinogen to integrin αvβ3 (integrin αvβ3) | effect on CAM angiogenesis induced by TGF-α (angiogenesis index) [2] | effect on CAM angiogenesis induced by PMA (angiogenesis index) [3] | effect on CAM angiogenesis in response to bFGF (angiogenesis index) ([1]; bFGF 1.0 μg/ml, antibodies 75 μg per embryo, calphostin C 100 nM)
cyclo(Arg-Ala-Asp-D-Phe-Val) (cyclo(RAD[dF]V); SMILES CC(C)[C@@H]1NC(=O)[C@@H](Cc2ccccc2)NC(=O)[C@H](CC(=O)O)NC(=O)[C@H](C)NC(=O)[C@H](CCCNC(=N)N)NC1=O) [peptide 69601, reference compound] | lack of effect | not inhibit binding | did not effect angiogenesis | lack of effect | 15.7×10^6 μm^3 | no statistical difference | not inhibit binding | inhibiting binding |  |  | 
cyclo(Arg-Gly-Asp-D-Phe-NMeVal) [peptide 85189] | reduction in tumor weight |  |  | reduction in tumor weight |  |  |  |  |  |  | 
B1 |  |  | inhibited bFGF-induced angiogenesis |  |  |  |  |  | failed to do so | failed to do so | blocked angiogenesis
